According to patent US7855259B2, “Method for producing melt-processable fluororesin” (Asahi Glass Company, Limited, priority 2005, dated 2010):

Assay: Measurement of 1-octanol/water partition coefficient (LogPOW) by HPLC, OECD Test Guideline 117
Assay type: physicochemical
Conditions: for LogPOW: 1-octanol/water partition coefficient calculated from HPLC elution time, OECD Test Guideline 117, ODS column, acetonitrile/0.6 mass % HClO4 aq. 1/1, 40° C.; for bioaccumulation potential (indicated by LogPOW value as compared to APFO): judged from LogPOW compared to APFO
Procedure: In accordance with OECD Test Guideline 117, 1-octanol/water partition coefficient (LogPOW) of a fluorinated emulsifier was measured by using HPLC (high performance liquid chromatography).
Conditions for the measurement were as follows: column: TOSOH ODS-120T column (φ 4.6 mm×250 mm), eluent: acetonitrile/0.6 mass % of HClO4 aqueous solution=1/1 (vol/vol %), flow rate: […], sample amount: 300 μL, column temperature: 40° C., and detection light: UV 210 nm (WO2005-42593).
HPLC was carried out on standard substances (heptanoic acid, octanoic acid, nonanoic acid and decanoic acid) having known 1-octanol/water partition coefficients, and a calibration curve was prepared from the respective elution times and octanol/water partition coefficients of the respective standard substances. Based on this calibration curve, a value of partition coefficient (LogPOW) between 1-octanol and water was calculated from the elution time by HPLC of the fluorinated emulsifier.
Further, in general, in order to judge whether or not a chemical substance is apt to be accumulated in a living organism, a testing method for measurement of a partition coefficient (LogPOW) between 1-octanol and water, is stipulated. As the testing method, in addition to “Partition Coefficient (1-octanol/water) Shake Flask Method” as stipulated in OECD test guideline 107 and in Japanese Industrial Standards Z 7260-107 (2000), a HPLC method (high-performance liquid chromatography) as stipulated and published in OECD Test Guideline 117, is used. A compound having a large partition coefficient value has a large tendency for bioaccumulation, and a compound having a small value means a small tendency for bioaccumulation. In a case where the LogPOW value is less than 3.5, it is considered proper to judge that it is not a high-concentration, and bioaccumulation is also considered to be small.

Compound	LogPOW	bioaccumulation potential (indicated by LogPOW value as compared to APFO)
N.O=C(O)C(F)(F)C(F)(F)C(F)(F)C(F)(F)C(F)(F)C(F)(F)C(F)(F)F [CF3(CF2)6COONH4, ammonium perfluorooctanoate]	3.67	
N.O=C(O)C(F)(F)OC(F)(F)C(F)(F)OC(F)(F)C(F)(F)F [CF3CF2OCF2CF2OCF2COONH4]	3.13	low
N.O=C(O)C(F)(OC(F)(F)C(F)(OC(F)(F)C(F)(F)F)C(F)(F)F)C(F)(F)F (centres unmarked) [CF3CF2OCF(CF3)CF2OCF(CF3)COONH4]	4.03	high
